Measurements reported in patent US20170261507A1, “Methods for Predicting and Monitoring Cancer Patients' Response to Teatment by Measuring Myeloid Derived Suppressor Cells (MDSCs)” (YISSUM RESEARCH DEVELOPMENT COMPANY OF THE HEBREW …, priority 2014, published 2017).

Tests used:
MDSC = conditions: mice, reference (11); cited from earlier work
[1] = tested on: MDSCs isolated from spleens of CRC mice; test: Cleaved caspase-3 in ex vivo cultured MDSCs, DCs and macrophages; format: cell-based, mouse
Gr1^+CD11b^+ MDSCs = test: MDSC accumulation in colon, spleen and PBLs of CRC-mice; format: in vivo, mouse
MDSCs [2] = test: BCG chronic inflammation mouse model: MDSC levels; format: in vivo; conditions: PBLs and spleen, compared to inflamed-untreated mice
Description: (§1) Mice were injected intraperitoneally with 10 mg/kg body weight of Azoxymethan (AOM, purchased from Sigma-Aldrich (St. Louis, Mo., USA)) dissolved in physiological saline twice in two weeks intervals. Two weeks later, 2% dextran sulfate sodium (DSS, purchased from MP biochemicals Inc. (Santa Ana, Calif., USA)) was given in the drinking water over 7 days, followed by 14 days of regular water (15). This cycle was repeated twice. Animals were sacrificed and analyzed three weeks after the last treatment. To induce a pathology-free chronic inflammation, a previously described protocol subjecting mice to heat-killed Mycobacterium […] (BCG) treatment (16) was used.
(§2) Next, the immunoregulatory effects of 5FU and CPT11 were examined in a mouse model for chronic inflammation and associated immunosuppression (10), as described in the materials and method section above and in FIG. 13A. This experiment was performed in order to investigate whether the differential effects of the drugs are related to the presence of the tumor. Briefly, the mouse model for chronic inflammation was established by three repeated injections of heat-killed BCG bacteria. A day after the second BCG injection, mice were treated twice a week with 5FU, CPT11 or a 5FU/CPT11 combination. […] No changes in CD4^+Foxp3^+ Tregs percentage were detected (FIG. 13H), confirming that these chemotherapies specifically affect MDSCs.

MDSCs [3] = test: BCG chronic inflammation mouse model: ROS and NO^− production by MDSCs; format: in vivo; conditions: splenic MDSCs, compared to inflamed-untreated mice
Description: as §1, §2

NK-cells = test: BCG chronic inflammation mouse model: NK-cell mediated clearance of allogeneic cells; format: in vivo; conditions: spleen and PBLs of inflamed mice
CD247 [4] = test: BCG chronic inflammation mouse model: CD247 expression in NK-cells; format: in vivo; conditions: chronically inflamed mice
Description: as §1
(§3) Next, it was assessed whether the 5FU and CPT11 opposite effects on MDSCs have different impacts on the host's immune competence. […] Since NK-cell activity is mediated via natural cytotoxicity receptors (NCRs), which associate with and depend on CD247, NK-cell in vivo function was assessed by monitoring the clearance of adoptively transferred allogeneic cells.

MDSCs [5] = test: NO^− and ROS production by MDSCs of treated CRC-mice (flow cytometry); format: in vivo, mouse
Description: Three weeks after the second DSS treatment mice were sacrificed and spleens were analyzed.

cleaved caspase-3 [6] = test: Cleaved caspase-3 in splenic MDSCs of treated CRC-mice; format: in vivo, mouse
Description: Cleaved caspase-3 staining was performed using primary Rabbit anti-cleaved caspase-3 (Cell Signaling Technology, Asp175) and secondary FITC-horse anti-Rabbit antibody (Thermo Scientific).
Therefore, Splenic MDSCs from each group were analyzed for the expression of activated (cleaved) caspase-3 by flow cytometry analysis. […] Cleaved caspase-3 levels were then evaluated on the primary MDSCs, differentiated CD11c^+CD11b^+DCs and F4/80^+CD11b^+ macrophages.

MDSCs [7] = test: Myeloid cell differentiation in vivo in CRC-mice
Description: Isolated mouse splenocytes and peripheral blood lymphocytes (PBLs) were subjected to cell surface staining as previously described (16), using the following antibodies (Biolegend): FITC-labeled anti-Gr1, and anti-CD11c; PE-labeled anti-F4/80, anti-CD3s, and anti-mNKp46; and biotinylated anti-CD11b detected with streptavidin-Cy5. Intracellular staining for CD247 was performed as previously described (16) by using FITC-labeled anti-CD247 or biotinylated anti-CD247 (lone H146), the latter detected with streptavidin-Cy5. Foxp3 staining was performed according to the manufacturer's instructions (Miltenyi Biotec). Cleaved caspase-3 staining was performed using primary Rabbit anti-cleaved caspase-3 (Cell Signaling Technology, Asp175) and secondary FITC-horse anti-Rabbit antibody (Thermo Scientific).
(§5) For that purpose the expression of the S100A8/9 pro-inflammatory proteins was assessed.

CD247 [8] = test: CD247 expression in T-cells of CRC-mice; format: in vivo, mouse; conditions: splenocytes of CRC-mice
Description: (§4) Next, the effect of the given chemotherapies on the immune status was evaluated. This was performed by testing the function of the whole T-cell population (FIG. 9J) as well as the CD8^+ T-cells (FIG. 9K) in all experimental groups along with measurements of the expression levels of CD247 in CD3^+ (FIG. 9L) and in CD8^+ T-cells (FIG. 9M). T-cell proliferative response was assessed by monitoring cell divisions of gated CFSE-labeled Thy1.2^+ (CD90^+) T-cells upon TCR-CD28 mediated activation.

S100A8/9 = conditions: MDSCs from spleen of CRC-mice
Description: Cells isolated from the spleen or colon were analyzed by Western blotting for the expression of various proteins as previously described (16). The antibodies used for immunoblotting were: anti-S100A9, anti-S100A8, and anti-αTubulin. Specific antibodies were detected by anti-rabbit or anti-goat antibodies conjugated to horseradish peroxidase (Jackson Immunoresearch), followed by enhanced chemiluminescence and exposure at blotting reader (Bio-Rad software).
as §5

T-cells [9] = test: CFSE T-cell proliferation assay, splenocytes of CRC-mice; format: in vivo, mouse; conditions: CFSE-labeled Thy1.2^+ T-cells, TCR-CD28 mediated activation, vs untreated CRC-mice
Description: as §4, with “Splenocytes or purified T-cells isolated by a magnetic column separation system (Miltenyi Biotec) were labeled with […] CFSE (Invitrogen) and subjected to TCR-mediated activation as previously described (16). Next,” for “Next,”

CD247 [10] = test: BCG chronic inflammation mouse model: CD247 expression in T-cells; format: in vivo; conditions: spleen and PBLs of inflamed mice
Description: as §1, §3

cleaved caspase-3 [11] = test: BCG chronic inflammation mouse model: cleaved caspase-3 in MDSCs; format: in vivo; conditions: compared to inflamed-untreated mice
[12] = tested on: MDSCs isolated from spleens of CRC-mice; test: NO^− and ROS production in ex vivo cultured MDSCs; format: cell-based, mouse; conditions: 2.5 μmol/L, 24 h
T-cells [13] = test: BCG chronic inflammation mouse model: T-cell proliferation; format: in vivo; conditions: splenocytes of inflamed mice
Description: as §1
Splenocytes or purified T-cells isolated by a magnetic column separation system (Miltenyi Biotec) were labeled with […] CFSE (Invitrogen) and subjected to TCR-mediated activation as previously described (16).
as §3

TNFα, S100A9 = test: TNFα and S100A9 mRNA in ex vivo cultured MDSCs (Real Time PCR); format: cell-based, mouse; conditions: 3 days
CRC-derived MDSC = test: Ex vivo GM-CSF mediated myeloid-cell differentiation; format: cell-based, mouse; conditions: 10 ng/ml GM-CSF, 72 h, vs GM-CSF only

In the case of O=c1[nH]cc(F)c(=O)[nH]1 [5FU, 5-fluoruracil], the “MDSC apoptosis and tumor regression” value (MDSC) is listed as “selective MDSC apoptosis and tumor regression”, the “5FU-induced apoptosis (cleaved caspase-3), DCs and macrophages” value ([1]; ex vivo, 10 ng/ml GM-CSF, 0, 1.25, 2.5, and 5, 3 days) is listed as “insensitive” and the “5FU-induced apoptosis (cleaved caspase-3), primary MDSCs” value ([1]; ex vivo, 10 ng/ml GM-CSF, 0, 1.25, 2.5, and 5 mol/L, 3 days) is listed as “evident only in non-differentiated MDSCs”. For the same compound, the “cleaved caspase-3 expression (MFI) in monocytic and granulocytic MDSCs” value ([1]; ex vivo, 2.5, 3 days, monocytic population more sensitive) was “enhanced cleaved caspase-3 expression”, the “cleaved caspase-3 in purified cultured MDSCs” value ([1]; ex vivo, various doses, 3 days, dose-dependent) was “cleaved caspase-3 up-regulation” and the “MDSC numbers / infiltration in colon” value (Gr1^+CD11b^+ MDSCs; lamina propria and epithelium, flow cytometry, vs untreated CRC-mice) was “significantly reduced MDSC infiltration”. For the same compound, the “MDSC numbers in spleens” value (Gr1^+CD11b^+ MDSCs; vs untreated, CPT11 or 5FU/CPT11 treated CRC-mice) was “significantly decreased MDSC numbers”, the MDSC levels (MDSCs [2]) was “significantly reduced MDSC levels” and the “ROS and NO^− production” value (MDSCs [3]) was “significantly reduced”. For the same compound, the “NK-cell activity (clearance of adoptively transferred allogeneic cells)” value (NK-cells) was “complete recovery of NK-cell activity”, the “CD247 expression in NK-cells” value (CD247 [4]) was “almost completely recovered” and the “tumor load within the colon (hematoxylin-eosin histopathology)” value (CRC-mice; monotherapy for three weeks, vs untreated CRC mice) was “decreased tumor load and recovery of colon architecture”. For the same compound, the “histopathological analysis of colon sections (hematoxylin-eosin)” value (CRC-mice; three weeks after second DSS treatment) was “only few aberrant crypt foci and tumors”, the “NO^− production” value (MDSCs [5]; lamina propria and epithelial MDSCs, vs untreated CRC mice) was “significant reduction of NO^− production” and the “NO^− and ROS production” value (MDSCs [5]; splenic MDSCs, compared to untreated CRC-mice) was “significantly reduced NO^− and ROS production”. For the same compound, the “cleaved caspase-3 expression in spleen MDSCs” value (cleaved caspase-3 [6]) was “significant increased cleaved caspase-3 expression”, the “matured antigen presenting cells (CD80 and MHCII expression)” value (MDSCs [7]) was “induced CD80 and MHCII expression” and the “myeloid cell differentiation in vivo (DCs and macrophages)” value (MDSCs [7]) was “significant shift towards differentiated DCs and macrophages”. For the same compound, the “CD247 expression levels in T-cells” value (CD247 [8]) was “elevated levels”, the “S100A8/9 mRNA and protein levels” value (S100A8/9) was “significant decrease in S100A8/9 mRNA and protein levels” and the T-cell proliferative ability (T-cells [9]) was “did not affect T-cell proliferation”. For the same compound, the “CD247 expression in T-cells” value (CD247 [10]) was “significant recovery of CD247 expression”, the “cleaved caspase-3 levels” value (cleaved caspase-3 [11]) was “elevated cleaved caspase-3 levels” and the “NO^− or ROS production in purified cultured MDSCs” value [12] was “did not alter NO^− or ROS production”. The T-cell proliferation (T-cells [13]) was “significant recovery”, the “mRNA levels of TNFα and S100A9” value (TNFα, S100A9) was “decreased levels of these factors” and the “GM-CSF mediated CRC-derived MDSC differentiation” value (CRC-derived MDSC) was “enabled MDSC differentiation to DCs and macrophages”.
